# Values joined by “and” are separate entries in the source; they are usually repeats but may differ in a detail not shown here. Identical values can stand only once. “Also recorded” adds a separate entry of the source. Like-named read-outs stand apart in the source and are kept apart here.
# Experiments:
# [1] = tested on: human primary glioblastoma cell line U251; experiment: MTT cell viability assay, U251; type: cell-based; details: for IC50: Homo sapiens, read-out: Antiproliferative Effect IC50 U251
# [2] = tested on: human primary glioblastoma cell line U87; experiment: MTT cell viability assay, U87; type: cell-based; details: 72 h, read-out: Antiproliferative Effect IC50 U87
# [3] = tested on: human tongue squamous cell carcinoma cell line Cal27; experiment: MTT cell viability assay, Cal27; type: cell-based; details: for IC50: Homo sapiens, read-out: Antiproliferative Effect IC50 Cal27
# [4] = target: HDAC1 (Homo sapiens, UniProt Q13547); experiment: In-vitro human HDAC1 fluorogenic inhibition assay (ZMAL substrate); type: biochemical
# HDAC1, sequence (Q13547 whole entry): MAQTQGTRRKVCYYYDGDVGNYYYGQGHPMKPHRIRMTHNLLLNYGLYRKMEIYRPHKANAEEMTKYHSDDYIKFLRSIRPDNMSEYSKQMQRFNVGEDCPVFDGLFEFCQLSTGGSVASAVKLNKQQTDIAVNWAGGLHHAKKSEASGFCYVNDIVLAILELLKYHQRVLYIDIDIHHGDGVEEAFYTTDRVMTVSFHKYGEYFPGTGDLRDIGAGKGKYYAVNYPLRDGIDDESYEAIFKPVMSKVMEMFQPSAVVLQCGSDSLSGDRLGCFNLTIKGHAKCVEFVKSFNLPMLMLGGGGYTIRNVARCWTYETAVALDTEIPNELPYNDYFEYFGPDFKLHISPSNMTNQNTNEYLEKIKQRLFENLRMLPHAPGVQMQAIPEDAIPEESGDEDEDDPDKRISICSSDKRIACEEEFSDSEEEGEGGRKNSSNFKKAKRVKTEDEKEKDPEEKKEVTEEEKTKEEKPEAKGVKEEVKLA
# [5] = target: T1, HDAC6 (Homo sapiens, UniProt Q9UBN7); experiment: In-vitro human HDAC6 fluorogenic inhibition assay (ZMAL substrate); type: biochemical
# T1 sequence (Q9UBN7 1-1215): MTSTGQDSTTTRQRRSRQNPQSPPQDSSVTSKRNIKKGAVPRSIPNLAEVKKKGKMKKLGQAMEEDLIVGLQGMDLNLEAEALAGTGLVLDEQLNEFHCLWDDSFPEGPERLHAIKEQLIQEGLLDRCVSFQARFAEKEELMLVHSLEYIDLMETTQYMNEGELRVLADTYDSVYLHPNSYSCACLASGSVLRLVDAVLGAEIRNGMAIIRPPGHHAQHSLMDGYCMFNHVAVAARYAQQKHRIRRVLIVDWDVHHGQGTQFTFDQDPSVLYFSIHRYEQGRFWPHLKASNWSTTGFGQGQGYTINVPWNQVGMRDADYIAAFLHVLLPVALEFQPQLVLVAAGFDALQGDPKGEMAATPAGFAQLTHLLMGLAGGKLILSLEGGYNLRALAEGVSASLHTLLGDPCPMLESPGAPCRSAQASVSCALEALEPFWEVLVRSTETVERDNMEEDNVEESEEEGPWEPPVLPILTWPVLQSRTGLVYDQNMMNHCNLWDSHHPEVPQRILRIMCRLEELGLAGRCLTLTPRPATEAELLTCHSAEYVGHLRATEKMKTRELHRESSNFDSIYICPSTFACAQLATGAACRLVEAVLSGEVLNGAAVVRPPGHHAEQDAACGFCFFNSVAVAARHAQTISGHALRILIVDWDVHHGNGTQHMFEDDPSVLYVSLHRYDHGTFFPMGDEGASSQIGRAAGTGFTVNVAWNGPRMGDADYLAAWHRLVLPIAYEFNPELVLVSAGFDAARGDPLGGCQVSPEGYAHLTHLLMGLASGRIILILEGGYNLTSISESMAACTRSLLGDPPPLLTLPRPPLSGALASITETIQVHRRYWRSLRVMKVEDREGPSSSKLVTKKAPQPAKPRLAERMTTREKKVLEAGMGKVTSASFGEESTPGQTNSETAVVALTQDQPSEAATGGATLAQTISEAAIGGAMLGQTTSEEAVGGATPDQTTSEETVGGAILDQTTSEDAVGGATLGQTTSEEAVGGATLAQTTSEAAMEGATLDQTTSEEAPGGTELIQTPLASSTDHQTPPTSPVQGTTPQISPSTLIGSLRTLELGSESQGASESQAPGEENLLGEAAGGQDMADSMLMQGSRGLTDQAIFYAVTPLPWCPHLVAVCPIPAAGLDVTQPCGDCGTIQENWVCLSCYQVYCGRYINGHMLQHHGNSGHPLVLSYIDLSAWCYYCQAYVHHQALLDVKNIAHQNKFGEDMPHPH
# [6] = tested on: γ-H2AX formation in Cal27 cells; experiment: γ-H2AX expression DNA damage assay; type: cell-based, human
# [7] = tested on: Cal27 cells; type: cell-based, human
# [8] = target: human recombinant HDAC3 (Homo sapiens, UniProt O15379); experiment: In-vitro human HDAC3 fluorogenic inhibition assay (ZMAL substrate); type: biochemical
# human recombinant HDAC3, sequence (O15379 whole entry): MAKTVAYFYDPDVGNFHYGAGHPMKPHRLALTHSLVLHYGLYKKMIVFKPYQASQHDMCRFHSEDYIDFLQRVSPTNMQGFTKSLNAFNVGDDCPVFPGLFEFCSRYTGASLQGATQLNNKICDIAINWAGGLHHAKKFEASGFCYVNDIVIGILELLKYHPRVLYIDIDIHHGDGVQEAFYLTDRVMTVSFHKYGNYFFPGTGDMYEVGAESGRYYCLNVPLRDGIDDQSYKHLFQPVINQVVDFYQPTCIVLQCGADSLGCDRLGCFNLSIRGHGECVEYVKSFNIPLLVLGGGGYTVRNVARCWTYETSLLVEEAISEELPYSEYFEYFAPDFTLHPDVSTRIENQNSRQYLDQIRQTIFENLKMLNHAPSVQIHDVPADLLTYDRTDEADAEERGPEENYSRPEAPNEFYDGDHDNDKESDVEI
# human recombinant HDAC3, sequence (Q9Y618 395-489 partner limits assumed): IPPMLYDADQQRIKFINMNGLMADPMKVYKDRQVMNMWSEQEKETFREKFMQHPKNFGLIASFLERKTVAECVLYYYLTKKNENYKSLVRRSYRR
# [9] = target: T2, HDAC8 recombinant enzyme (Homo sapiens, UniProt Q9BY41); experiment: In-vitro human HDAC8 assay (Boc-Lys-(TFa)-AMC substrate); type: biochemical
# T2 sequence (Q9BY41 1-377): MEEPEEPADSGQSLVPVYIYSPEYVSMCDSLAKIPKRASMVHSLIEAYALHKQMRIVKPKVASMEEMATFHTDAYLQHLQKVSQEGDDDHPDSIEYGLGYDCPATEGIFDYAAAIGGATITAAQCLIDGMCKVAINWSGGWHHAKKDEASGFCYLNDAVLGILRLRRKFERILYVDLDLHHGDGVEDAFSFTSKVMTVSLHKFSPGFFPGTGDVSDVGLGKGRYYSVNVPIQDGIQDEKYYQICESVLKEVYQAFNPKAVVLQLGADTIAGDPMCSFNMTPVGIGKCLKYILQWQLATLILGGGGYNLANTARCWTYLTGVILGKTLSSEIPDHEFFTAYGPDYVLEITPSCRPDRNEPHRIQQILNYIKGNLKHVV
# [10] = tested on: caspase 3/7 activation in Cal27 cells; type: cell-based, human
# [11] = target: human recombinant HDAC2 (Homo sapiens, UniProt Q92769); experiment: In-vitro human HDAC2 fluorogenic inhibition assay (ZMAL substrate); type: biochemical
# human recombinant HDAC2, sequence (Q92769 whole entry): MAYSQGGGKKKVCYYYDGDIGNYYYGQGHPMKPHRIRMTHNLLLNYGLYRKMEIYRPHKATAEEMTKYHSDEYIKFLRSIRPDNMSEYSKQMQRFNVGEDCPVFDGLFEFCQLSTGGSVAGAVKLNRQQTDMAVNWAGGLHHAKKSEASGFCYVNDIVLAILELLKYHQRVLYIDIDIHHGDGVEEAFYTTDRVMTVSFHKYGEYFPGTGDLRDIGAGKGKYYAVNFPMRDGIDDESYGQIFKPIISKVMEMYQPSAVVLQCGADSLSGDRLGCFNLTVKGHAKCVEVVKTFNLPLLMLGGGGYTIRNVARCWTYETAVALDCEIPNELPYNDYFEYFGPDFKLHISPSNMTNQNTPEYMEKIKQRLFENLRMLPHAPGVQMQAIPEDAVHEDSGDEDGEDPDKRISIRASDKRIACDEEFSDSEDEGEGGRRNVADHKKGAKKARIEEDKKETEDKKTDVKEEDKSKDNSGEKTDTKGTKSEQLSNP
# [12] = U-251, MTT assay, 72 h, n≥3, each in triplicate wells, n.e.: no effect up to 100 μM
# [13] = fluorogenic assay, n≥2, each in duplicate wells, read-out: Target Inhibition IC50 HDAC1
# [14] = MTT assay, n≥3, each in triplicate wells
# [15] = CAL-27, MTT assay, 72 h, n≥3, each in triplicate wells
# [16] = fluorogenic assay, n≥2, each in duplicate wells, read-out: Target Inhibition IC50 HDAC6
Compound,"IC50 ([1]; U-251, 72 h) [µM]",IC50 [2] [µM],"IC50 ([3]; CAL-27, 72 h) [µM]","IC50 [1, 12] [µM]","IC50 [4, 13] [µM]","IC50 [2, 14] [µM]","IC50 [3, 15] [µM]","IC50 [5, 16] [µM]",IC50 [4] [µM],IC50 [5] [µM],other results
"O=C(O)CCCc1ccc(N(CCCl)CCCl)cc1 [CAB, chlorambucil, reference compound]",48.7 ± 11.9,86.3 ± 17.5,23.7 ± 2.26,–,–,–,–,–,–,–,–
O=C(NO)c1ccc(CNC(=O)c2ncn3c(=O)n(CCCl)nnc23)cc1 [Compound 3 b],–,–,–,44.5 ± 8.94,0.394 ± 0.02,147 ± 19.7,16.8 ± 3.62,0.023 ± 0.002,–,–,–
O=C(CCCc1ccc(N(CCCl)CCCl)cc1)NCc1ccc(C(=O)NO)cc1 [Compound 3 c],22 ± 3.09,23.9 ± 3.41,6.89 ± 1.04,–,–,–,–,–,0.518 ± 0.065,0.032 ± 0.003,–
Cn1nnc2c(C(=O)NCCCC(=O)NO)ncn2c1=O [Compound 3 d],–,–,–,–,35.1 ± 5.32,323 ± 107,97.1 ± 16.3,4.99 ± 0.129,–,–,"Antiproliferative Effect IC50 U251 ([1]; MTT assay, 72 h, n≥3, each in triplicate wells, n.e.: no effect up to 100 μM): n.e."
O=C(CCCNC(=O)c1ncn2c(=O)n(CCCl)nnc12)NO [Compound 3 e],–,–,–,461 ± 89.9,16.2 ± 0.07,413 ± 77.7,87.8 ± 9.52,2.37 ± 0.086,–,–,–
O=C(CCCNC(=O)CCCc1ccc(N(CCCl)CCCl)cc1)NO [Compound 3 f],20.1 ± 2.41,46.1 ± 5.71,8.67 ± 1.31,–,–,–,–,–,8.21 ± 0.183,4.6 ± 0.082,–
O=C(CCCCCNC(=O)c1ncn2c(=O)n(CCCl)nnc12)NO [Compound 3 g],–,–,–,140 ± 17.8,0.681 ± 0.015,262 ± 75.6,29 ± 3.73,0.094 ± 0.002,–,–,–
O=C(CCCCCNC(=O)CCCc1ccc(N(CCCl)CCCl)cc1)NO [Compound 3 h],25.1 ± 3.27,43.9 ± 15.3,7.5 ± 0.62,–,–,–,–,–,0.444 ± 0.053,0.121 ± 0.008,–
Cn1nnc2c(C(=O)NCCCCCCC(=O)NO)ncn2c1=O [Compound 3 i],–,–,–,86.2 ± 13.1,0.161 ± 0.006,166 ± 33.6,10.2 ± 1.54,0.031 ± 0.002,–,–,–
O=C(CCCCCCNC(=O)c1ncn2c(=O)n(CCCl)nnc12)NO [Compound 3 j],–,–,–,48.2 ± 7.35,0.143 ± 0.005,122 ± 56,9.9 ± 1.24,0.038 ± 0.004,–,–,–
O=C(CCCCCCNC(=O)CCCc1ccc(N(CCCl)CCCl)cc1)NO [Compound 3 k],27 ± 3.55,39.2 ± 7.16,6.17 ± 0.51,–,–,–,–,–,0.244 ± 0.041,0.063 ± 0.001,–
Cn1nnc2c(C(=O)NCc3ccc(/C=C/C(=O)NO)cc3)ncn2c1=O [Compound 3 l],–,–,–,97.8 ± 9.07,0.146 ± 0.008,141 ± 20.7,15.4 ± 1.61,0.072 ± 0.008,–,–,"γ-H2AX formation ([6]; Cal27 cells, IC50 (from MTT assay), 24 h): not different from control; γ-H2AX formation ([6]; Cal27 cells, fivefold IC50 (from MTT assay), 24 h): only weak DNA damage"
O=C(/C=C/c1ccc(CNC(=O)CCCc2ccc(N(CCCl)CCCl)cc2)cc1)NO [Compound 3 n],14.5 ± 1.59,19.8 ± 3.16,2.68 ± 0.31,–,–,–,–,–,0.151 ± 0.021,0.062 ± 0.001,"induction of apoptosis (subG1 nuclei) [7]: more potent than 3 o, cisplatin, vorinostat, and CAB in inducing apoptosis; improved antiproliferative effect in comparison to parent compound CAB [3]: up to 10 fold; IC50 [8]: 0.187 ± 0.009 µM; γ-H2AX formation [6]: significant increase in γ‐H2AX formation; also recorded: significantly more active than 3 l and 3 m; also recorded: significantly more effective than the sum of the effects of 3 o and CAB; also recorded: significantly greater DNA damage (γ‐H2AX assay) than 3 o; IC50 [9]: 4.04 ± 0.28 µM; caspase 3/7 activation [10]: significantly more effective than the sum of the effects of 3 o and CAB; also recorded: significantly stronger than the sum of the effects of even 100 μM CAB and 30 μM 3 o; combination index (CI) [10]: 0,92 and 0,69 and 0,70; IC50 [11]: 0.432 ± 0.015 µM"
O=C(/C=C/c1ccc(CNC(=O)CCCc2ccccc2)cc1)NO [Compound 3 o],–,–,–,23.9 ± 3.51,0.156 ± 0.008,27.7 ± 6.52,6.59 ± 0.44,0.066 ± 0.001,–,–,"IC50 ([8]; n≥2, each in duplicate wells, read-out: HDAC Inhibition IC50 HDAC 3): 0.117 ± 0.02 µM; IC50 ([11]; n≥2, each in duplicate wells, read-out: HDAC Inhibition IC50 HDAC 2): 0.194 ± 0.034 µM"
"NC(=O)c1ncn2c(=O)n(CCCl)nnc12 [MTZ, mitozolomide, reference compound]",–,–,–,84.5 ± 7.3,–,57.4 ± 9.51,3.56 ± 0.29,–,–,–,–
"Cn1nnc2c(C(N)=O)ncn2c1=O [TMZ, temozolomide, reference compound]",–,–,–,457 ± 57.3,–,144 ± 15.6,56.8 ± 5.05,–,–,–,–
"Cn1c(CCCCCCC(=O)NO)nc2cc(N(CCCl)CCCl)ccc21 [tinostamustine, reference compound]",10.2 ± 0.62,8.32 ± 0.55,2.94 ± 0.07,–,–,–,–,–,0.047 ± 0.003,0.011 ± 0.001,–

# Reference: article PMC7756583, “Hydroxamic Acids Immobilized on Resins (HAIRs): Synthesis of Dual‐Targeting HDAC Inhibitors and HDAC Degraders (PROTACs)” (Angewandte Chemie (International Ed. in English), 2020)
